Source: PMC5748027, “Computer-aided design of multi-target ligands at A1R, A2AR and PDE10A, key proteins in neurodegenerative diseases” (Journal of Cheminformatics, 2017)

Tests used:
human PDE10A = target: T1, human PDE10A (Homo sapiens, UniProt Q9Y233); test: Phosphodiesterase activity, AD293 cells transiently transfected with human PDE10A; format: biochemical; conditions: for inhibition at 10 µM: read-out: % inhibition at 10 μM (PDE10A), 10 μM compound; for IC50: mean of 3 experiments in duplicate
T1 construct: expressed in transfected cells; host or cells: AD293 (transient transfection)
Method: (§1) Bioactivity testing was performed using A1 and A2A human adenosine receptors expressed in transfected CHO (A1) and HeLa (A2A) cells, as well as AD293 cells that were transiently transfected with human PDE10A. Table 1 includes the list of synthesized 4,6-substituted 2-amino-pyridin-3-carbonitriles, along with their Ki values against A1R, A2AR, and IC50 values against PDE10A.
(§2) The activity measurements against the phosphodiesterases PDE7A, PDE7B, PDE9A and PDE10A were performed using AD293 cells that were transiently and separately transfected with human PDE7A, PDE7B, PDE9A, and PDE10A following the procedure described by Shipe et al..

[1] = target: T2, A1 human adenosine receptor (A1R) (Homo sapiens, UniProt P30542); test: Radioligand binding competition assay, human A1 receptor in transfected CHO cells; conditions: for Ki: Cheng-Prusoff approximation; for inhibition at 0.1 µM: 0.1 µM compound, read-out: % displacement at 0.1 μM (A1R)
T2 construct: expressed in transfected cells; host or cells: CHO
T2 sequence (P30542 1-326): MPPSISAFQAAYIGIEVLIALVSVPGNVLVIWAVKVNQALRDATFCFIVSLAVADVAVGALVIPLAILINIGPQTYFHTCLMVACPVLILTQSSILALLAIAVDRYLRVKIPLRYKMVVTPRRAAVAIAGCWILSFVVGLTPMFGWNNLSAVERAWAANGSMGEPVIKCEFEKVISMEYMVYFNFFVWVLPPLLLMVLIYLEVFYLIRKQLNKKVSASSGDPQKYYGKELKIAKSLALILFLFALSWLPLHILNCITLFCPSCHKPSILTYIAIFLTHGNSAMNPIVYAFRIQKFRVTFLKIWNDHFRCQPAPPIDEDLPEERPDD
Method: Pharmacological evaluation was performed in a radioligand binding competition assay, using A1, A2A, A2B, and A3 human receptors expressed in transfected CHO (A1), HeLa (A2A and A3), and HEK-293 (A2B) according to the procedure reported by Bosch et al. [78].

A3 human receptor (A3R) = target: T3, A3 human receptor (A3R) (Homo sapiens, UniProt P0DMS8); test: Radioligand binding competition assay, human A3 receptor in transfected HeLa cells; conditions: 0.1 µM compound; read-out: percentage displacement at 0.1µM (A3R)
T3 construct: expressed in transfected cells; host or cells: HeLa
T3 sequence (P0DMS8 1-318): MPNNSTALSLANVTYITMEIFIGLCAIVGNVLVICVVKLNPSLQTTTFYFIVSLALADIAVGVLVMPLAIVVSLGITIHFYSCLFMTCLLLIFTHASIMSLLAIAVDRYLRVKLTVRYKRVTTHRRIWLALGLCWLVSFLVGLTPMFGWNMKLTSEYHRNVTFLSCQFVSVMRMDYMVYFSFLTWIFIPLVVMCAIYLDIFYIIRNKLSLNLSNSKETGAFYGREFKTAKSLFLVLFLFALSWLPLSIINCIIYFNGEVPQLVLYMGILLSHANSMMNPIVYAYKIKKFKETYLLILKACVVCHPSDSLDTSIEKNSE
Method: (§3) Pharmacological evaluation was performed in a radioligand binding competition assay, using A1, A2A, A2B, and A3 human receptors expressed in transfected CHO (A1), HeLa (A2A and A3), and HEK-293 (A2B) according to the procedure reported by Bosch et al..

human PDE7B = target: T4, human PDE7B (Homo sapiens, UniProt Q9NP56); test: Phosphodiesterase activity, AD293 cells transiently transfected with human PDE7B; format: biochemical; conditions: for inhibition at 10 µM: 10 µM compound, read-out: Percentage inhibition at 10µM (PDE7B)
T4 construct: expressed in transfected cells; host or cells: AD293 (transient transfection)
Method: as §2

[2] = target: T5, A2B human receptor (A2BR) (Homo sapiens, UniProt P29275); test: Radioligand binding competition assay, human A2B receptor in transfected HEK-293 cells; conditions: 0.1 µM compound; read-out: percentage displacement at 0.1µM (A2BR)
T5 construct: expressed in transfected cells; host or cells: HEK-293
T5 sequence (P29275 1-332): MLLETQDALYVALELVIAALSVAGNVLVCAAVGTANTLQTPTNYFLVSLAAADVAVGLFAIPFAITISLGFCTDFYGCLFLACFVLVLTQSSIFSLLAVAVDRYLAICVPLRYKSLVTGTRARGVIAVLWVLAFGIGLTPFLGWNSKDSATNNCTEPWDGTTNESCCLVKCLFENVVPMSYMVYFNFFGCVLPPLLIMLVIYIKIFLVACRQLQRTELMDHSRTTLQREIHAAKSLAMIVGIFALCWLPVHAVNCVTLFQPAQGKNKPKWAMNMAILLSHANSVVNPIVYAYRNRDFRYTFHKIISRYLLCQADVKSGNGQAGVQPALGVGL
Method: as §3

human PDE9A = target: T6, human PDE9A (Homo sapiens, UniProt O76083); test: Phosphodiesterase activity, AD293 cells transiently transfected with human PDE9A; format: biochemical; conditions: 10 µM compound; read-out: Percentage inhibition at 10µM (PDE9A)
T6 construct: expressed in transfected cells; host or cells: AD293 (transient transfection)
Method: as §2

[3] = target: T7, A2A human adenosine receptor (A2AR) (Homo sapiens, UniProt P29274); test: Radioligand binding competition assay, human A2A receptor in transfected HeLa cells; conditions: for % displacement at 0.1 μM (A2AR): 0.1 µM compound; for Ki: Cheng-Prusoff approximation
T7 construct: expressed in transfected cells; host or cells: HeLa
Method: as §1, §3

human PDE7A = target: T8, human PDE7A (Homo sapiens, UniProt Q13946); test: Phosphodiesterase activity, AD293 cells transiently transfected with human PDE7A; format: biochemical; conditions: for inhibition at 10 µM: 10 µM compound, read-out: Percentage inhibition at 10µM (PDE7A)
T8 construct: expressed in transfected cells; host or cells: AD293 (transient transfection)
Method: as §2

T8 sequence (Q13946 whole entry): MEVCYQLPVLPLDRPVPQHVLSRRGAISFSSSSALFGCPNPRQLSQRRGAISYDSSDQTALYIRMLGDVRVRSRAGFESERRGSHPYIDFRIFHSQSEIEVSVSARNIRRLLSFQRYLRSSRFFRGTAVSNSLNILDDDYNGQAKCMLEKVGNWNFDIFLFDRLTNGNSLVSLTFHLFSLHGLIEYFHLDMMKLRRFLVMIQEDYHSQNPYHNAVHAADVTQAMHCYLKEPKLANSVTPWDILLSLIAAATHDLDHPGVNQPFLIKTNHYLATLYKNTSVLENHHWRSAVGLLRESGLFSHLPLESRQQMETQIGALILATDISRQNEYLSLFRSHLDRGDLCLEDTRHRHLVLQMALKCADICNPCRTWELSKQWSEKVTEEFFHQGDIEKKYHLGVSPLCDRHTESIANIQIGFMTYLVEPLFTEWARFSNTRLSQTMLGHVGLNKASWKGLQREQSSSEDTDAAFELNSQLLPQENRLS
T7 sequence (P29274 whole entry): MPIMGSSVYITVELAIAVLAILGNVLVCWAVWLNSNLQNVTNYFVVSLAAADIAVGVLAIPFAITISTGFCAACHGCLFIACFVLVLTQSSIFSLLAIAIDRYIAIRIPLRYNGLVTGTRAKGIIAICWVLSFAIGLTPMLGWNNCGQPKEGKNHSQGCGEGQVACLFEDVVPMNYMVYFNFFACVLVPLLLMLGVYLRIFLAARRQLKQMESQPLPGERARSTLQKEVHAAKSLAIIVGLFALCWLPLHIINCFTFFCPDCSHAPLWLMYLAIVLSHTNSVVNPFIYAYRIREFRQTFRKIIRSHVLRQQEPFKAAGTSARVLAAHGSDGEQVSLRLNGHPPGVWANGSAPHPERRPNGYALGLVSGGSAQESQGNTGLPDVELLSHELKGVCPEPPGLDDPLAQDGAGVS
T6 sequence (O76083 whole entry): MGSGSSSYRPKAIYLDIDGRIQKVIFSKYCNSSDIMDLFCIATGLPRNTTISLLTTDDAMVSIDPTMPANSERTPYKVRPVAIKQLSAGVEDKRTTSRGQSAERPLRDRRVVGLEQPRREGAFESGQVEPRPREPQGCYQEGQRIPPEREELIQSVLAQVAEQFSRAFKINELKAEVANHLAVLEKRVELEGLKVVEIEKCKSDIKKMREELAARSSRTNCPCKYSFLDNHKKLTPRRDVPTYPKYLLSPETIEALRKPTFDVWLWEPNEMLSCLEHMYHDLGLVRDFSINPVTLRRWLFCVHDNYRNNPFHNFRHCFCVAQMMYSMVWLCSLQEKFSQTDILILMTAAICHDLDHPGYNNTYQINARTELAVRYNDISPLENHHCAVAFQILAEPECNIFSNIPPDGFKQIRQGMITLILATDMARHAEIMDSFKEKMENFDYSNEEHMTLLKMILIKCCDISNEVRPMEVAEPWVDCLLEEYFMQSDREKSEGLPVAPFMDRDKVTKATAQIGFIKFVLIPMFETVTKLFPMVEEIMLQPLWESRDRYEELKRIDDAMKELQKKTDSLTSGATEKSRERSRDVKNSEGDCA
T4 sequence (Q9NP56 whole entry): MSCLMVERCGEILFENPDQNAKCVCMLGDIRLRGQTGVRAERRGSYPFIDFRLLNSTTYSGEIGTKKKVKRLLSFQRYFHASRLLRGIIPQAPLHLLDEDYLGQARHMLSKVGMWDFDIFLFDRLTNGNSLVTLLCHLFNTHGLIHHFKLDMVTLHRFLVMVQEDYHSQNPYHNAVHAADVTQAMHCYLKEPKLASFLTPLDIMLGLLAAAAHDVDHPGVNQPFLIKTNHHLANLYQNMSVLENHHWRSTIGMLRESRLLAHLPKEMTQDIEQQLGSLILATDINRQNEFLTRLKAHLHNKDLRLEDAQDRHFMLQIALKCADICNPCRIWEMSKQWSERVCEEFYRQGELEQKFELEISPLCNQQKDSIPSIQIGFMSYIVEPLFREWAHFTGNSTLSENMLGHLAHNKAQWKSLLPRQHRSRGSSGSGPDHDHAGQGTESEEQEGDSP
T1 sequence (Q9Y233 267-1055 limits assumed): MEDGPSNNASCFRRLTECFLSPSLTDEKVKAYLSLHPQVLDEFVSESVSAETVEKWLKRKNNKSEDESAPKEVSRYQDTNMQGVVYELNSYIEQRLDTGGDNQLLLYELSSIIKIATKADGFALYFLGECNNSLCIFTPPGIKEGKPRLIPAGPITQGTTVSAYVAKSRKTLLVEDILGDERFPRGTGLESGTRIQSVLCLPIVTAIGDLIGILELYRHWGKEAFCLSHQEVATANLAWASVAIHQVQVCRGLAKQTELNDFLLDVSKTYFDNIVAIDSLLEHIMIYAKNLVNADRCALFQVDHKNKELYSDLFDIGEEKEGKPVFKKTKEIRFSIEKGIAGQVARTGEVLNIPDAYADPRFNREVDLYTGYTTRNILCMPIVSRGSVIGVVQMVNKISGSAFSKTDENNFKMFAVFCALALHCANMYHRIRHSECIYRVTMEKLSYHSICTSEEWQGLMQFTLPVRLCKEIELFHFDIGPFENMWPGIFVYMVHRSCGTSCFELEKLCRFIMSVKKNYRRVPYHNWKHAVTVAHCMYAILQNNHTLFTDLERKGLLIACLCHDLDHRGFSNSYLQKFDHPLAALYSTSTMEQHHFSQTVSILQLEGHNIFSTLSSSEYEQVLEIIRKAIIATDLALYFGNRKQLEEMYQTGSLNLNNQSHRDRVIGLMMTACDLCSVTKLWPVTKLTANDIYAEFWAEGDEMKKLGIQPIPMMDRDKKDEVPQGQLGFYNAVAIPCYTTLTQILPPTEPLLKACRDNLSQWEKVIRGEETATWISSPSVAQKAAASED

Row | inhibition at 10 µM (human PDE10A) [%] | Ki [1] [µM] | inhibition at 0.1 µM (A3 human receptor (A3R)) [%] | inhibition at 10 µM (human PDE7B) [%] | inhibition at 0.1 µM [2] [%] | inhibition at 10 µM (human PDE9A) [%] | % displacement at 0.1 μM (A2AR) [3] [%] | inhibition at 10 µM (human PDE7A) [%] | IC50 (human PDE10A) [µM] | inhibition at 0.1 µM [1] [%] | melting point [°C] | Ki [3] [µM] | IC50 (human PDE7A) [µM] | IC50 (human PDE7B) [µM] | SMILES
1 | 22 | 0.394 ± 0.012 | 27 | 28 | 2 | 1 | 32 | 9 |  |  |  |  |  |  | N#Cc1c(-c2ccccc2)cc(-c2ccc(F)cc2)nc1N [Compound 1, 2-amino-6-(4-fluorophenyl)-4-phenylpyridine-3-carbonitrile]
2 |  |  | 23 | 30 | 2 | 17 |  |  | 10 ± 0.6 | 38 | 187 to 188 | 0.095 ± 0.004 | 15.1 |  | COc1ccccc1-c1cc(-c2ccco2)nc(N)c1C#N [Compound 21, 2-amino-6-(furan-2-yl)-4-(2-methoxyphenyl)pyridine-3-carbonitrile]
3 | 10 | 0.108 ± 0.006 | 27 | 20 | 1 | 7 | 30 | 22 |  |  |  |  |  |  | COc1ccc(-c2cc(-c3ccccc3F)nc(N)c2C#N)cc1 [Compound 14, 2-amino-6-(2-fluorophenyl)-4-(4-methoxyphenyl)pyridine-3-carbonitrile]
4 |  |  | 1 |  | 8 | 25 | 10 |  | 4 ± 0.3 | 2 | 215 to 217 |  | 1.8 | 7.3 | N#Cc1c(-c2ccccc2Cl)cc(-c2ccc(O)cc2)nc1N [Compound 23, 2-amino-4-(2-chlorophenyl)-6-(4-hydroxyphenyl)pyridine-3-carbonitrile]
5 |  |  | 28 | 35 | 1 | 9 | 18 | 31 | 3.7 ± 0.3 | 17 | 120 to 121 |  |  |  | Cc1ccccc1-c1cc(C2CCCCC2)c(C#N)c(N)n1 [Compound 10, 2-amino-4-cyclohexyl-6-(2-methylphenyl)pyridine-3-carbonitrile]
6 | 73 |  | 1 | 42 | 2 | 19 |  | 49 |  | 58 | 187 to 188 | 0.338 ± 0.012 |  |  | COc1ccccc1-c1cc(-c2ccccc2F)nc(N)c1C#N [Compound 19, 2-amino-6-(2-fluorophenyl)-4-(2-methoxyphenyl)pyridine-3-carbonitrile]
7 |  |  | 1 | 38 | 1 | 7 | 7 | 47 | 3.1 ± 0.4 | 19 | 299 to 300 |  |  |  | N#Cc1c(-c2ccc(O)cc2)cc(-c2ccc(O)cc2)nc1N [Compound 24, 2-amino-4,6-bis(4-hydroxyphenyl)pyridine-3-carbo-nitrile]
8 | 28 |  | 26 | 30 | 5 | 3 |  | 24 |  | 53 |  | 0.543 ± 0.013 |  |  | COc1ccccc1-c1cc(-c2ccccc2)nc(N)c1C#N [Compound 5, 2-amino-4-(2-methoxyphenyl)-6-phenylpyridine-3-carbonitrile]
9 |  |  | 21 | 30 | 33 | 2 |  |  | 3.2 ± 0.4 |  | 205 to 207 |  | 3.4 |  | COc1ccc(-c2cc(-c3ccco3)nc(N)c2C#N)cc1 [Compound 16, 2-amino-6-(furan-2-yl)-4-(4-methoxyphenyl)pyridine-3-carbonitrile]
10 |  |  | 2 |  | 5 | 14 |  | 48 | 5.1 ± 0.4 | 15 |  | 0.055 ± 0.002 |  | 4.7 | N#Cc1c(-c2ccco2)cc(-c2ccsc2)nc1N [Compound 25, 2-amino-4-(furan-2-yl)-6-(thiophen-3-yl)pyridine-3-carbonitrile]
11 | 65 |  | 8 | 44 | 1 | 7 | 29 |  |  | 46 |  |  | 3.5 |  | COc1ccc(-c2cc(-c3ccc(O)cc3)nc(N)c2C#N)cc1 [Compound 17, 2-amino-6-(4-hydroxyphenyl)-4-(4-methoxyphenyl)pyridine-3-carbonitrile]
12 |  |  | 17 | 55 | 4 | 16 | 32 | 57 | 1.5 ± 0.2 | 6 |  |  |  |  | COc1ccc(-c2cc(-c3ccccc3C)nc(N)c2C#N)cc1 [Compound 15, 2-amino-4-(4-methoxyphenyl)-6-(2-methylphenyl)pyridine-3-carbonitrile]
13 | 52 | 0.142 ± 0.007 | 2 | 39 | 2 | 1 | 38 | 47 |  |  |  |  |  |  | N#Cc1c(-c2ccccc2)cc(-c2ccc(O)cc2)nc1N [Compound 2, 2-amino-6-(4-hydroxyphenyl)-4-phenylpyridine-3-carbonitrile]
14 |  |  | 2 | 16 | 1 | 9 | 1 | 63 | 5.6 ± 0.5 | 8 |  |  |  |  | COc1ccccc1-c1cc(-c2ccc(O)cc2)nc(N)c1C#N [Compound 22, 2-amino-6-(4-hydroxyphenyl)-4-(2-methoxyphenyl)pyridine-3-carbonitrile]
15 |  |  | 6 | 23 | 3 | 12 | 50 | 31 | 6.4 ± 0.4 | 12 |  |  |  |  | COc1ccccc1-c1cc(-c2ccccc2C)nc(N)c1C#N [Compound 20, 2-amino-4-(2-methoxyphenyl)-6-(2-methylphenyl)pyridine-3-carbonitrile]
16 |  |  | 6 | 27 | 1 | 1 | 1 | 51 | 5.7 ± 0.3 | 12 |  |  |  |  | COc1ccc(-c2cc(-c3ccccc3)nc(N)c2C#N)c(OC)c1 [Compound 6, 2-amino-4-(2,4-dimethoxyphenyl)-6-phenylpyridine-3-carbonitrile]
